Results from US20100098689A1, “4-1 bb ligand in inflammatory diseases” (The Scripps Research Institute, priority 2006, published 2010).
Peptide text beside a SMILES is read from it. * marks the point of attachment. Cbz = O=C(OCc1ccccc1)*

Experiments:
Type in all cases: cell-based, mouse
4-1BBL mRNA = assay: Semiquantitative PCR of LPS-induced 4-1BBL mRNA in macrophages; conditions: for LPS-induced 4-1BBL mRNA / 4-1BBL expression: pretreated 1 hour with 20 μM sulfasalazine, 10 μM SB203580, 5 μM SP600125 or 10 μM PD98059, then LPS, MG-132 data not shown
Procedure: (A) Immunoblot of 4-1BBL in lysates from wild-type macrophages and macrophages deficient in TLR4 (TLR4 KO), MyD88 (MyD88 KO) or TRIF (TRIF KO), treated with LPS (time, above lanes). LPS induces quick expression of 4-1BBL in macrophages in a TLR4-, MyD88-, and TRIF-dependent manner. (B) Semiquantitative PCR of 4-1BBL mRNA in wild-type macrophages left without pretreatment (None) or pretreated for 1 hour with inhibitors of NF-κB (20 μM sulfasalazine), p38 (10 μM SB203580), Jnk (5 μM SP600125) or MEK (10 μM PD98059) and then treated with LPS (time, above lanes). […] (C) Real-time RCR analysis of the stability of LPS-induced 4-1BBL mRNA (1 hour of treatment; LPS) or ectopically expressed 4-1BBL mRNA at 18 hour after infection with recombinant adenovirus encoding 4-1BBL (Adv). Actinomycin D was used to inhibit transcription. Values are the percent remaining relative to the value at 0 hour (set at 100%). LPS-induced alterations in mRNA stability were also involved in LPS-induced 4-1BBL expression. (D) Flow cytometry of 4-1BBL expression by wild-type peritoneal macrophages treated with LPS (time, key): right, surface expression; left, total expression in cells made permeable with 0.1% saponin. LPS-induced 4-1BBL is located on the cell surface. (E) Immunofluorescence microscopy of wild-type peritoneal macrophages preincubated for 1 hour with (+) or without (−) brefeldin A (3 μg/mL), then treated with LPS (time, left margin) and immunostained with anti-4-1BBL. Original magnification, ×100. Brefeldin A blocks protein translocation to the cell surface by inhibiting its translocation from the endoplasmic reticulum to the Golgi apparatus. (F) Semiquantitative PCR of 4-1BBL and TNF mRNA in lysates of cells treated as described in E. Brefeldin A neither affected the LPS-induced increase in 4-1BBL mRNA nor influenced LPS-induced TNF mRNA after 1 hour, but did reduce TNF mRNA at 2, 4 and 6 hours. GAPDH (A,B,F): glyceraldehyde phosphate dehydrogenase (loading control). Data are representative of three independent experiments.
Semiquantitative PCR was performed as described by Kim et al., J. Exp. Med. 197:1441-52 (2003). For real-time PCR, 0.5 μg of total RNA were used to prepare cDNA using oligo(dT)12 as a primer. The SYBR green PCR Master Mix kit (Applied Biosystems) was used in the real-time PCR analysis.
To determine whether the newly synthesized 4-1BBL needs to be on the cell surface in order to regulate the expression of TNF, peritoneal macrophages were preincubated with or without brefeldin A (3 μg/mL) for 1 hour and were then treated with LPS for the indicated times. Immunostaining was performed using anti-4-1BBL antibodies. 4-1BBL and TNF mRNA were analyzed by semiquantitative PCR. GAPDH was used as control. Brefeldin A is a specific inhibitor that blocks protein translocation to the cell surface by inhibiting its translocation from the endoplasmic reticulum to the Golgi apparatus Klausner et al., J. Cell Biol. 116:1071-1080 (1992) (FIG. 7E).

wild-type macrophages = assay: ELISA of TNF production by macrophages infected with adenovirus expressing 4-1BBL; conditions: inhibitor added 6 h after infection (20 μM sulfasalazine, 10 μM SB203580, 5 μM SP600125, 10 μM PD98059), analyzed 24 hour after infection
Procedure: FIG. 10A-I indicate that two sequential TLR4 complexes exist. (A) Immunoassay of wild-type macrophages treated with LPS (time, above lanes); total cell lysates (Lysates; top) or lysates immunoprecipitated with anti-TLR4, anti-MyD88 or anti-4-1BBL were analyzed by immunoblot with anti-4-1BBL, anti-TLR4 and/or anti-MyD88. Dashed outline, isotype antibody (negative control for immunoprecipitation); solid outlines, positive control for immunoblot of 4-1BBL or MyD88. In LPS-treated macrophages, the MyD88-TLR4 complex is responsible for the initial cellular responses, and the 4-1BBL-TLR4 complex is involved in sustaining TNF production. […] (C) 4-1BBL interacts with TRAF6, but not TRAF2. (D) Knockdown of TRAF6 impaired LPS, PolyI:C, and IL-1β induced cytokine production, but has no effect on TNF-induced IL-6 production. […]

TNF mRNA = assay: Semiquantitative PCR of LPS-induced TNF mRNA in peritoneal macrophages; conditions: preincubated 1 hour with brefeldin A 3 μg/mL
Procedure: (A) Immunoblot of 4-1BBL in lysates from wild-type macrophages and macrophages deficient in TLR4 (TLR4 KO), MyD88 (MyD88 KO) or TRIF (TRIF KO), treated with LPS (time, above lanes). LPS induces quick expression of 4-1BBL in macrophages in a TLR4-, MyD88-, and TRIF-dependent manner. (B) Semiquantitative PCR of 4-1BBL mRNA in wild-type macrophages left without pretreatment (None) or pretreated for 1 hour with inhibitors of NF-κB (20 μM sulfasalazine), p38 (10 μM SB203580), Jnk (5 μM SP600125) or MEK (10 μM PD98059) and then treated with LPS (time, above lanes). […] (C) Real-time RCR analysis of the stability of LPS-induced 4-1BBL mRNA (1 hour of treatment; LPS) or ectopically expressed 4-1BBL mRNA at 18 hour after infection with recombinant adenovirus encoding 4-1BBL (Adv). Actinomycin D was used to inhibit transcription. Values are the percent remaining relative to the value at 0 hour (set at 100%). LPS-induced alterations in mRNA stability were also involved in LPS-induced 4-1BBL expression. […]
To determine whether the newly synthesized 4-1BBL needs to be on the cell surface in order to regulate the expression of TNF, peritoneal macrophages were preincubated with or without brefeldin A (3 μg/mL) for 1 hour and were then treated with LPS for the indicated times. […] 4-1BBL and TNF mRNA were analyzed by semiquantitative PCR. […]

| SMILES | LPS-induced 4-1BBL mRNA / 4-1BBL expression (4-1BBL mRNA) | 4-1BBL-mediated TNF production (wild-type macrophages) | LPS-induced increase in 4-1BBL mRNA (4-1BBL mRNA; preincubated 1 hour with brefeldin A 3 μg/mL, then LPS) | LPS-induced TNF mRNA at 2, 4, and 6 hours (TNF mRNA; LPS 2, 4, 6 hours) | LPS-induced TNF mRNA after 1 hour (TNF mRNA; LPS 1 hour) |
| --- | --- | --- | --- | --- | --- |
| CC(C)C[C@@H](C=O)NC(=O)[C@H](CC(C)C)NC(=O)[C@H](CC(C)C)NC(=O)OCc1ccccc1 [MG-132] (Cbz-Leu-Leu-Leu-aldehyde) | effectively inhibited |  |  |  |  |
| COc1cccc(-c2cc(=O)c3ccccc3o2)c1N [PD98059] | some inhibitory effects | reduced |  |  |  |
| C[S+]([O-])c1ccc(-c2nc(-c3ccncc3)c(-c3ccc(F)cc3)[nH]2)cc1 (stereo not drawn) [SB203580] | some inhibitory effects | reduced |  |  |  |
| C[C@H]1CCC/C=C/[C@@H]2C[C@H](O)C[C@H]2[C@H](O)/C=C/C(=O)O1 [Brefeldin A] |  |  | did not affect | did reduce | did not influence |
| O=C(O)c1cc(/N=N/c2ccc(S(=O)(=O)Nc3ccccn3)cc2)ccc1O [sulfasalazine] | effectively inhibited |  |  |  |  |
